Assay results from publication PMC4891694, “Insights into the role of sulfated glycans in cancer cell adhesion and migration through use of branched peptide probe” (Scientific Reports, 2016).

Tests used:
[1] = system: NT4 binding to membrane receptors on PANC-1 cells; test: Flow cytometry, inhibition of NT4 binding to PANC-1 cells by GAGs; format: cell-based, human; settings: 1 μM biotinylated NT4, 100 μg/ml GAGs, PBS with 5 mM EDTA and 0.5% BSA, Streptavidin-FITC
[2] = system: cancer cell lines and human cancer surgical samples; parameters: method as in 2 sources, one per row (each row's own in cited_ref): ref 1-6 = [1]; PMID 17766836; doi:10.1158/1535-7163.MCT-07-0164; Falciani C. et al. Synthesis and biological activity of stable branched neurotensin peptides for tumor targeting . Mol. Cancer Ther. 6 , 2441 − 2448 ( 2007 ). 17766836 10.1158/1535-7163.MCT-07-0164 || [2]; PMID 20222099; doi:10.1002/cmdc.200900527; Falciani C. et al. Design and in vitro evaluation of branched peptide conjugates: turning nonspecific cytotoxic drugs into tumor-selective agents . ChemMedChem. 5 , 567 − 574 ( 2010 ). 20222099 10.100 || [3]; PMID 20578987; doi:10.2174/156800910793605875; Falciani C. et al. Modular branched neurotensin peptides for tumor target tracing and receptor-mediated therapy: a proof-of-concept . Curr. Cancer Drug Targets. 10 , 695 − 704 ( 2010 ). 20578987 10.21 || [4]; PMID 21370475; doi:10.1002/cmdc.201000463; Falciani C. et al. Target-selective drug delivery through liposomes labeled with oligobranched neurotensin peptides . ChemMedChem. 6 , 678 − 685 ( 2011 ). 21370475 10.1002/cmdc.201000463 || [5]; PMID 25984525; doi:10.1155/2015/173507; Brunetti J. et al. Neurotensin branched Peptide as a tumor-targeting agent for human bladder cancer . Biomed Res Int. 2015 , 173507 , doi: 10.1155/2015/173507 ( 2015 ). 25984525 PMC4423026 ||| ref 7 = [7]; PMID 23713525; doi:10.1021/jm400329p; Falciani C. et al. Cancer selectivity of tetrabranched neurotensin peptides is generated by simultaneous binding to sulfated glycosaminoglycans and protein receptors . J Med Chem. 56 , 5009 – 18 ( 201); settings: compared with NT4; cited from earlier work
[3] = system: NT4 binding to PgsA-745 cells; test: Flow cytometry, inhibition of NT4 binding to PgsA-745 cells by heparin; format: cell-based, Chinese hamster; settings: 1 μM biotinylated NT4, 100 μg/ml heparin
Procedure: PANC-1 human pancreas adenocarcinoma, CHO-K1 Chinese hamster ovary cell and PgsA-745 Chinese hamster ovary cell mutant deficient in xylosyltransferase (UDP-D-xylose: serine-1,3-D-xylosyltransferase) were grown in DMEM Medium (for PANC-1 and CHO-K1) and F12 K Medium supplemented with 10% fetal bovine serum, 200 μg/ml glutamine, 100 μg/ml streptomycin and 60 μg/ml penicillin. Cell lines were purchased from ATCC (The Global Bioresource Center).
All experiments were performed using 1 × 10^5 PANC-1, CHO-K1 or PgsA-745 cells in 96-well U-bottom plates. […] Cells were finally incubated with 1 μg/ml Streptavidin-FITC. All dilutions were performed in PBS, containing 5 mM EDTA and 0.5% BSA.
10000 events were analyzed in a BD FACS Calibur (Becton Dickinson, NJ USA). Results were analyzed by FCS Express 4 Plus software.

[4] = system: NT4 binding to endocytic receptors; parameters: method as in PMID 23713525; settings: cited from earlier work
breast cancer in mice = settings: orthotopic breast cancer, versus unconjugated paclitaxel; cited from earlier work

For hyaluronic acid, the “inhibition of NT4 binding (in words)” value [1] was “neither binding to NT4 or inhibition of NT4 binding to cancer cell membranes was detected”.
In the case of “native neurotensin: monomeric native neurotensin”, the high cancer selectivity [2] is listed as “not shared by monomeric native neurotensin”.
For heparin, the “inhibition of NT4 binding (in words)” value [1] is listed as “complete inhibition”, the “inhibition of NT4 binding to PgsA-745 cells” value [3] is listed as “still completely inhibited by heparin” and the “inhibition of NT4 binding to endocytic receptors” value [4] is listed as “completely inhibited by heparin”.
In the case of `CC(=O)O[C@H]1C(=O)[C@@]2(C)[C@H]([C@H](OC(=O)c3ccccc3)[C@]3(O)C[C@H](OC(=O)[C@H](O)[C@@H](NC(=O)c4ccccc4)c4ccccc4)C(C)=C1C3(C)C)[C@]1(OC(C)=O)CO[C@@H]1C[C@@H]2O` [unconjugated paclitaxel, paclitaxel], the tumor regression (breast cancer in mice) is listed as “not achieved with unconjugated paclitaxel”.
